Test results taken from patent US20120214862A1, “MODULATION OF FACTOR 7 EXPRESSION” (ISIS Pharmaceuticals, Inc., priority 2009, published 2012).
In the oligonucleotide strings, read from the 5' end, every base follows the letter of its sugar. An asterisk marks phosphorothioate; unmarked linkages are phosphodiester. Other units and linkages are bracketed, terminal groups are in braces. A string of capitals states the bases alone. e = 2'-O-(2-methoxyethyl) (MOE); [5mC] = 5-methylcytosine; d = 2'-deoxy (DNA)

Assays:
[1] = test system: platelet factor-4 (PF-4); assay: FeCl3 induced venous thrombosis (VT) model, real-time RT-PCR quantification of PF-4 in vena cava as measure of thrombus formation; type: in vivo, mouse; details: for PF-4 (percent of PF-4 mRNA as compared to the PBS + FeCl3 control) / PF-4 (percentage compared to PBS controls): BALB/c mice; for PF-4 (percent of PF-4 mRNA as compared to the PBS + FeCl3 control): no Plavix; for PF-4 (percentage compared to PBS controls): vena cava
Protocol: Two control groups of BALB/c mice were treated with PBS, administered subcutaneously twice a week for 3 weeks. Thrombus formation was induced with FeCl3 in half of the mice while the rest of the mice were assayed for tail bleeding. […] Thrombus formation was induced with FeCl3 in all groups of the VT mice except the first control group.
(§1) In mice undergoing FeCl3 treatment, thrombus formation was induced by applying a piece of filter paper (2×4 min) pre-saturated with 10% FeCl3 solution directly on the vena cava. After 3 minutes of exposure, the filter paper was removed. Thirty minutes after the filter paper application, a fixed length of the vein containing the thrombus was dissected out for platelet analysis. Liver was collected for RNA analysis.
(§2) Real-time RT-PCR quantification of platelet factor-4 (PF-4) was used to quantify platelets in the vena cava as a measure of thrombus formation.
Six additional groups of BALB/c mice was treated with 0.5 mg/kg, 1 mg/kg, 2 mg·kg, 3 mg/kg, 4 mg/kg, or 5 mg/kg of warfarin, administered intraperioneally daily for 6 days. Four hours after the last dose of warfarin, mice were sacrificed. A control group of BALB/c mice were treated with PBS, administered subcutaneously twice a week for 3 weeks. Two days after the last dose of PBS, mice were anesthetized with 150 mg/kg ketamine mixed with 10 mg/kg xylazine administered by intraperitoneal injection. Thrombus formation was induced with FeCl3 in groups of mice except the first control group.
as §1, with “mm)” for “min)”
as §2
Thrombus formation was induced with FeCl3 in all of the mice except the first […] control groups. All mice were anesthetized with 150 mg/kg of ketamine mixed with 10 mg/kg of xylazine administered by intraperitoneal injection.
After 3 minutes of exposure, the filter paper was removed. Thirty minutes after the filter paper application, a fixed length of the vein containing the thrombus was dissected out for platelet analysis.
Real-time PCR quantification of PF-4 was used to quantify platelets in the vena cava as a measure of thrombus formation. […] Data is presented as percent of PF-4 mRNA as compared to the PBS+ FeCl3 control, […]

[2] = test system: human Factor 7 mRNA; assay: Dose-dependent antisense inhibition of human Factor 7 in HepB3 cells, transfection with lipofectin; type: cell-based; details: for percent inhibition of Factor 7 mRNA, relative to untreated control cells: lipofectin, HepB3 cells, 16 hours; for percent inhibition of Factor 7 mRNA, 3.125 nM / percent inhibition of Factor 7 mRNA, 6.25 nM / percent inhibition of Factor 7 mRNA, 12.5 nM / percent inhibition of Factor 7 mRNA, 25.0 nM / percent inhibition of Factor 7 mRNA, 50.0 nM / percent inhibition of Factor 7 mRNA, 100.0 nM: HepB3, lipofectin, ~16 h
In short: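 HepB3 cells (4,000/well) lipofectin-transfected with antisense oligonucleotide at 3.125 or 6.25 up to 100 nM for ~16 h. Factor 7 mRNA measured by real-time RT-PCR with primer probe set RTS 2927, adjusted to RIBOGREEN total RNA; expressed as percent inhibition versus untreated control cells.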

Substance	percent inhibition of Factor 7 mRNA, relative to untreated control cells ([2]; 3.125 nM) [%]	percent inhibition of Factor 7 mRNA, relative to untreated control cells ([2]; 12.5 nM) [%]	percent inhibition of Factor 7 mRNA, relative to untreated control cells ([2]; 25 nM) [%]	percent inhibition of Factor 7 mRNA, relative to untreated control cells ([2]; 50 nM) [%]	percent inhibition of Factor 7 mRNA, relative to untreated control cells ([2]; 100 nM) [%]	percent inhibition of Factor 7 mRNA, 3.125 nM ([2]; Example 2, 3.125 nM) [%]	percent inhibition of Factor 7 mRNA, 6.25 nM ([2]; Example 2) [%]	percent inhibition of Factor 7 mRNA, 12.5 nM ([2]; Example 2, 12.5 nM) [%]	percent inhibition of Factor 7 mRNA, 25.0 nM ([2]; Example 2) [%]	percent inhibition of Factor 7 mRNA, 50.0 nM ([2]; Example 2) [%]	percent inhibition of Factor 7 mRNA, 100.0 nM ([2]; Example 2) [%]	percent inhibition of Factor 7 mRNA, 6.25 nM ([2]; Example 5) [%]	percent inhibition of Factor 7 mRNA, 12.5 nM ([2]; Example 5, 12.5 nM) [%]	percent inhibition of Factor 7 mRNA, 25.0 nM ([2]; Example 5) [%]	percent inhibition of Factor 7 mRNA, 50.0 nM ([2]; Example 5) [%]	percent inhibition of Factor 7 mRNA, 100.0 nM ([2]; Example 5) [%]	percent inhibition of Factor 7 mRNA, relative to untreated control cells [2] [%]	also measured
CCATAGAACAGCTTCACAGG (sugars from the 5' end e5 d10 e5, backbone and methylation of C not given here) [ISIS 403102]																		PF-4 (percent of PF-4 mRNA as compared to the PBS + FeCl3 control) ([1]; with FeCl3, ISIS 403102 20 mg/kg s.c. twice a week for three weeks): 39%; PF-4 (percent of PF-4 mRNA as compared to the PBS + FeCl3 control) ([1]; without FeCl3, ISIS 403102 20 mg/kg s.c. twice a week for three weeks): 2%; PF-4 in comparison to the PBS control ([1]; Example 14, 25, 37.5 or 50 mg/kg sc twice a week for 3 weeks): reduction of PF-4; PF-4 in comparison to the PBS control ([1]; Example 16, dosages of 5 mg/kg and higher, sc twice a week for 3 weeks): dose-dependent reduction of PF-4; PF-4 (percentage compared to PBS controls) ([1]; FeCl3 (Example 16), 1 mg/kg s.c. twice a week for 3 weeks): 120%; PF-4 (percentage compared to PBS controls) ([1]; FeCl3 (Example 16), 3 mg/kg s.c. twice a week for 3 weeks): 112%; PF-4 (percentage compared to PBS controls) ([1]; FeCl3 (Example 16), 5 mg/kg s.c. twice a week for 3 weeks): 69%; PF-4 (percentage compared to PBS controls) ([1]; FeCl3 (Example 16), 10 mg/kg s.c. twice a week for 3 weeks): 22%; PF-4 (percentage compared to PBS controls) ([1]; FeCl3 (Example 16), 20 mg/kg s.c. twice a week for 3 weeks): 41%; PF-4 (percentage compared to PBS controls) ([1]; FeCl3 (Example 16), 40 mg/kg s.c. twice a week for 3 weeks): 38%; PF-4 (percentage compared to PBS controls) ([1]; FeCl3, 25 mg/kg s.c. twice a week for 3 weeks): 34%; PF-4 (percentage compared to PBS controls) ([1]; FeCl3, 37.5 mg/kg s.c. twice a week for 3 weeks): 24%; PF-4 (percentage compared to PBS controls) ([1]; FeCl3, 50 mg/kg s.c. twice a week for 3 weeks): 24%
407939 (antisense eT*eG*e[5mC]*eA*eG*d[5mC]*d[5mC]*d[5mC]*dG*dG*d[5mC]*dA*d[5mC]*d[5mC]*d[5mC]*eA*eG*e[5mC]*eG*eA) [compound 407939]	17	57	75	80	83	62	79	83	91	92	92	37	57	77	84	87	35	
407935 (antisense eA*eT*eG*e[5mC]*eA*dT*dG*dG*dT*dG*dA*dT*dG*d[5mC]*dT*eT*e[5mC]*eT*eG*eA) [compound 407935]	19	58	70	85	87	57	76	78	89	90	89	38	53	70	82	86	39	
